According to patent US20260355136A1, “PROSTACYCLIN FOR TREATING PULMONARY HYPERTENSION” (Shanghai Forefront Pharma Co., Ltd., priority 2023, published 2026):

Legend:
Format in all cases: in vivo, male Sprague-Dawley rats
[1] = Body weight of MCT-modeled rats; details: intragastric; for Body weight on Day 0: Day 0 = MCT injection, before dosing; for Body weight on Day 14: Day 14 = start of dosing; for Body weight at sampling: sampled on Day 27
Experimental: (§1) Twenty-eight 7-week-old male Sprague-Dawley rats (average weight of 200-250 g) were purchased from Vital River and were raised at the experimental site for 1 week of acclimatization (temperature 20 °C-26 °C, humidity 30%-70%, light-dark cycle ratio 1:1) until they were 8 weeks old.
(§2) Twenty-eight rats were randomized into the following 6 groups, including dosing groups, positive control groups, a negative control group and a healthy control group, and each was marked with ear tags.
(§3) • (1) Preparation of monocrotaline (MCT) solution: An adequate amount of MCT was weighed into a 50 mL solution of 20% ethanol-normal saline. After gentle shaking, the solution was transferred to a 50-mL centrifuge tube, and placed tilted in a thermostatic shaker at 37 °C, 220 rpm for 12-14 hours to fully dissolve until no visible crystalline particles observed. • (2) Injection of MCT solution: The skin on the dorsal cervical region of the rats was gently lifted, MCT solution was subcutaneously injected at a dose of 60 mg/kg using a 1-mL syringe and the day was recorded as Day 0. • (3) Healthy control: The same volume of normal saline was injected in the same manner.
According to the concentration of 0.6 mg/mL and 1.2 mg/mL (3-mg/kg/day and 6-mg/kg/day dose groups), appropriate amounts of the test compound were weighed and dissolved in corresponding volume of pure water by shaking to obtain transparent solution, respectively; • (2) The resulting solutions were stored in a 4 °C refrigerator. Remove and equilibrate to room temperature before use;
Starting from Day 14, the rats were weighed daily, and the corresponding solutions (test compound or normal saline) were administered intragastrically according to the grouping protocol until Day 27, for a total of 14 days; the intragastric dose was 0.5 mL/100 g, and the body weight and survival data of the rats were recorded.
(§4) Note: Due to the limited total amount of Compound 1, rats in Group 1 were actually administered for 13 days, rats in Group 2 were actually administered for 12 days, and all were measured and sampled on Day 27; rats in Groups 3-6 were actually administered for 14 days, and all were measured and sampled on Day 27.

MCT modeling rats [2] = test: Hemodynamic measurement of right ventricular systolic pressure (RVSP) by right cardiac catheterization in MCT-modeled rats
Experimental: as §1, §2
as §3, with “manner. […]” for “manner.”
(§5) Starting from Day 14, the rats were weighed daily, and the corresponding solutions (test compound or normal saline) were administered intragastrically according to the grouping protocol until Day 27, for a total of 14 days; the intragastric dose was 0.5 mL/100 g, and the body weight and survival data of the rats were recorded. […]
as §4
(§6) Rats in Groups 3-6 were actually administered for 14 days, and all were measured and sampled on Day 27. […]

MCT modeling rats [3] = test: Fulton index (RV/(LV+S)) measurement in MCT-modeled rats
Experimental: The Fulton index reflects the organ remodeling caused by PAH. […] This is a goal that current pharmaceutical drugs for treating PAH cannot achieve, but one that new drugs for PAH aim to reach.
as §1, §2
as §3, with “manner. […]” for “manner.”
as §5
After separating the heart, the non-ventricular parts (such as the atria, blood vessels, and valve rings) were cut off. […] RV/(LV+S) was calculated as the Fulton index. […]
as §6

CCCCC[C@H](O)CC[C@@H]1[C@H]2Cc3cccc(OCC(=O)O)c3C[C@H]2C[C@H]1O [Compound C1, Treprostinil sodium 5.5-hydrate]
Body weight on Day 0 ([1]; 3 mg/kg/day group): 330 + 25.11 g
Body weight on Day 14 ([1]; 3 mg/kg/day group): 430 + 34.15 g
Body weight at sampling ([1]; 3 mg/kg/day): 431 + 58.03 g
Body weight on Day 0 ([1]; 6 mg/kg/day group): 316 + 4.35 g
Body weight on Day 14 ([1]; 6 mg/kg/day group): 413 + 15.81 g
Body weight at sampling ([1]; 6 mg/kg/day): 436 + 9.65 g
RVSP compared with healthy control group (MCT modeling rats [2]; 3 and 6 mg/kg): still higher than that in the healthy control group
RVSP reduction in rats (MCT modeling rats [2]; 3 and 6 mg/kg): can significantly reduce RVSP in rats
RVSP, difference between dosing groups (MCT modeling rats [2]; 6 vs 3 mg/kg): no significant difference in the effects between the two dosing groups
Fulton index compared with healthy control group (MCT modeling rats [3]; 3 and 6 mg/kg): still higher than that of the healthy control group
Fulton index reduction of rat heart (MCT modeling rats [3]; 3 and 6 mg/kg): can significantly reduce the Fulton index of rat heart
Fulton index, difference between dosing groups (MCT modeling rats [3]; 6 vs 3 mg/kg): no significant difference in the effects between the two dosing groups
